Results: the supplement of paper PMC11208160

Experiment: recombinant UMI read abundance after kanamycin selection (control-corrected) (log10(CPM+1)); higher = more efficient recombination; extreme values may be limits of the assay; sequences stand for … in AGTGCAGAGAAAATCGGCCAGTTTTCTCTGCCTGCAGTCCGCATGCCGTGGGACCCCTTGGGTTCTAACCTGTTGCCTAGATTTATGCAGCGGACTGCCTTTCTCCCAAAGTGATAAACCGG…AGGTTGGTTTCACT; site = the 11-nt donor
Procedure, shortened: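 Each donor and donor-binding-loop pair was tracked by a 12-nt UMI on a plasmid carrying a promoterless kanamycin gene. With a second plasmid supplying a fixed target and T7-inducible IS621 bridge recombinase, the pool was plated in Escherichia coli on IPTG (0.07 mM) plus kanamycin or unselected. Sequencing of recombinant UMIs across the donor–target junction gave counts expressed as log10(CPM+1) after replicate averaging and control-derived scaling.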
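Further: IS621 bridge recombinase in Escherichia coli cells against a fixed T5 target plasmid.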

Sequence	recombinant UMI read abundance (log10)
TGCTAGGCATGGACCGGTTTTCCCGGTAATCCGTATTTGGT (site TGTTAGGCTAC)	0.026
TAACATTCATGGACCGGTTTTCCCGGTAATCCGTATTTGGG (site TAACATTCTCC)	0.809
GTCACGCCATGGACCGGTTTTCCCGGTAATCCGTATTTGTA (site GGCACGCCTTA)	0.00905
GAGCTCACATGGACCGGTTTTCCCGGTAATCCGTATTTGCT (site GAGCTCACTAC)	0.00315
CGATCGTCATGGACCGGTTTTCCCGGTAATCCGTATTTGCT (site CGATCGTCTAG)	2.46
AGCCCAGCATGGACCGGTTTTCCCGGTAATCCGTATTTGGG (site AGCCCAGCTCC)	0.35
GTGCATGCATGGACCGGTTTTCCCGGTAATCCGTATTTGGT (site GTGCACGCTAC)	0.586
CCAGGAGCATGGACCGGTTTTCCCGGTAATCCGTATTTGAT (site CCAGGAGCTAT)	1.6
CATGTGTCATGGACCGGTTTTCCCGGTAATCCGTATTTGAC (site TATGTGTCTGT)	0.00981
CCCTTATCATGGACCGGTTTTCCCGGTAATCCGTATTTGGG (site CCCTTATCTCC)	0.162
CACTGATCATGGACCGGTTTTCCCGGTAATCCGTATTTGCT (site CACTGATCTAG)	2.61
CTGGAAACATGGACCGGTTTTCCCGGTAATCCGTATTTGCT (site CTGGAAACTGG)	1.1
AGAAAGGCATGGACCGGTTTTCCCGGTAATCCGTATTTGCT (site TGAAAGGCTAG)	0.932
CATTAGTCATGGACCGGTTTTCCCGGTAATCCGTATTTGTT (site CATTAGTCTAA)	2.03
TACATGACATGGACCGGTTTTCCCGGTAATCCGTATTTGTG (site TACATGACTCA)	0.61
ACAGACTCATGGACCGGTTTTCCCGGTAATCCGTATTTGCA (site ACAGTATCTTG)	0
GGGACTACATGGACCGGTTTTCCCGGTAATCCGTATTTGAC (site GGGACTACTGT)	1.48
GTCACGGCATGGACCGGTTTTCCCGGTAATCCGTATTTGAA (site GTCACGGCTTT)	1.2
TTCAAGTCATGGACCGGTTTTCCCGGTAATCCGTATTTGTA (site TTCAAGTCTTA)	0.621
CGGACAACATGGACCGGTTTTCCCGGTAATCCGTATTTGCT (site CGGACAGCTAG)	0.34
TAGCCTTCATGGACCGGTTTTCCCGGTAATCCGTATTTGGT (site TCGCCTTCTAC)	0.0137
AATTATGCATGGACCGGTTTTCCCGGTAATCCGTATTTGGG (site AATTATGCTCC)	0.388
CCGCTTACATGGACCGGTTTTCCCGGTAATCCGTATTTGCT (site CCGATTACTAG)	0
AGAAAGGCATGGACCGGTTTTCCCGGTAATCCGTATTTGCT (site AGAAAGCCTAG)	0
TATTTGGCATGGACCGGTTTTCCCGGTAATCCGTATTTGTG (site TATTTGCCTCA)	0.00864

Sequence	recombinant UMI read abundance (log10)
CTACTAACATGGACCGGTTTTCCCGGTAATCCGTATTTGTA (site CTACTAACTTT)	1.92
GTTGGTCCATGGACCGGTTTTCCCGGTAATCCGTATTTGGT (site GTTGGTCCTAC)	0.0121
CCGAAAACATGGACCGGTTTTCCCGGTAATCCGTATTTGCT (site TCGAAAACTAG)	0
GAAGACTCATGGACCGGTTTTCCCGGTAATCCGTATTTGTT (site GAAGAGTCTAA)	0.00964
GGCGAACCATGGACCGGTTTTCCCGGTAATCCGTATTTGAA (site GGCGAACCTTT)	0
ACACATCCATGGACCGGTTTTCCCGGTAATCCGTATTTGGC (site ACACATCCTGT)	1.19
GACGAACCATGGACCGGTTTTCCCGGTAATCCGTATTTGGT (site GACTAACCTAC)	0.0149
GCACCATCATGGACCGGTTTTCCCGGTAATCCGTATTTGTA (site GCACCATCTTA)	2.47
ATGTCGACATGGACCGGTTTTCCCGGTAATCCGTATTTGCG (site ATGTCGACTCG)	0.954
CGTCCAACATGGACCGGTTTTCCCGGTAATCCGTATTTGTA (site CGTCCAACTTA)	1.61
ATTCGAGCATGGACCGGTTTTCCCGGTAATCCGTATTTGCA (site TTTCGAGCTTG)	0.947
TTTTCGGCATGGACCGGTTTTCCCGGTAATCCGTATTTGCT (site TTTTCGGCTAG)	0.0145
CAGTTCTCATGGACCGGTTTTCCCGGTAATCCGTATTTGGC (site CAGTTCTCTGC)	3.27
TGTTGCCCATGGACCGGTTTTCCCGGTAATCCGTATTTGTA (site TGTTCCCCTTA)	0.324
ATCGAAGCATGGACCGGTTTTCCCGGTAATCCGTATTTGAG (site ATCCAAGCTCT)	0.355
CTGCTACCATGGACCGGTTTTCCCGGTAATCCGTATTTGCT (site CTACTACCTAG)	0
TAGAATACATGGACCGGTTTTCCCGGTAATCCGTATTTGTG (site TAGAATACTCA)	2.01
TCTAAATCATGGACCGGTTTTCCCGGTAATCCGTATTTGTT (site TCTAAATCTAA)	0
TGGCCTGCATGGACCGGTTTTCCCGGTAATCCGTATTTGGC (site TGGCCGGCTGC)	0
ATGTAGGCATGGACCGGTTTTCCCGGTAATCCGTATTTGGC (site ATGTAGGCTGT)	2.51
GTTGGAGCATGGACCGGTTTTCCCGGTAATCCGTATTTGCA (site GTTGGAGCTTG)	2.49
TGGATGACATGGACCGGTTTTCCCGGTAATCCGTATTTGCA (site TGGATGACTTG)	2.44
TTGCTACCATGGACCGGTTTTCCCGGTAATCCGTATTTGCT (site TTGCTACCTAG)	0
CAATCACCATGGACCGGTTTTCCCGGTAATCCGTATTTGCT (site CGATCATCTAG)	0
AGCTCAGCATGGACCGGTTTTCCCGGTAATCCGTATTTGGA (site AGCTCAGCTCC)	0.264

Sequence	recombinant UMI read abundance (log10)
GCTTCCCCATGGACCGGTTTTCCCGGTAATCCGTATTTGAT (site GCTTCCCCTAT)	0.569
GTCGGGGCATGGACCGGTTTTCCCGGTAATCCGTATTTGTT (site GTCGGGGCTAA)	0.949
GAACGGCCATGGACCGGTTTTCCCGGTAATCCGTATTTGCA (site GAAGGGCCTTG)	0
TCTGTCGCATGGACCGGTTTTCCCGGTAATCCGTATTTGGC (site TCTGTCGCTGC)	0.00952
GTAGTGTCATGGACCGGTTTTCCCGGTAATCCGTATTTGAC (site GTAGTGTCTGT)	3.23
CAGTCGACATGGACCGGTTTTCCCGGTAATCCGTATTTGAG (site CAGTCGACTCT)	0.855
CTAGTATCATGGACCGGTTTTCCCGGTAATCCGTATTTGAG (site CTAGTATCTTT)	2.29
GGATAGACATGGACCGGTTTTCCCGGTAATCCGTATTTGCC (site GGTTAGACTGG)	1.09
TTTGAGGCATGGACCGGTTTTCCCGGTAATCCGTATTTGCT (site TTTGTGGCTAG)	0.0143
TATCTTACATGGACCGGTTTTCCCGGTAATCCGTATTTGTA (site TATCTTACTTA)	0.0229
ACATTATCATGGACCGGTTTTCCCGGTAATCCGTATTTGCA (site ACACTATCTTG)	2.24
CGAGAACCATGGACCGGTTTTCCCGGTAATCCGTATTTGGG (site CGAGCACCTCC)	0.00673
GGAGTAGCATGGACCGGTTTTCCCGGTAATCCGTATTTGGT (site GGAGTGGCTAC)	0.49
AGGATTCCATGGACCGGTTTTCCCGGTAATCCGTATTTGTT (site AGGATTCCTAA)	0.226
TAGCCTCCATGGACCGGTTTTCCCGGTAATCCGTATTTGGT (site TAGCCTCCTAC)	0.00993
GGGGCACCATGGACCGGTTTTCCCGGTAATCCGTATTTGCA (site GGGGGACCTTG)	0
TGCTAGACATGGACCGGTTTTCCCGGTAATCCGTATTTGGT (site TGCTAGCCTAC)	0.00952
GAATGGCCATGGACCGGTTTTCCCGGTAATCCGTATTTGAA (site GAATGGCCTTA)	0.00888
AGGTGGACATGGACCGGTTTTCCCGGTAATCCGTATTTGCA (site AGGAAGACTTG)	1.46
TGTTCCCCATGGACCGGTTTTCCCGGTAATCCGTATTTGTA (site TATTCCCCTTA)	0.0123
TGGCCGCCATGGACCGGTTTTCCCGGTAATCCGTATTTGGC (site TGGCCGTCTGC)	0
AGAAAGGCATGGACCGGTTTTCCCGGTAATCCGTATTTGCG (site AGAAAGGCTGG)	0
ACACATCCATGGACCGGTTTTCCCGGTAATCCGTATTTGAC (site ACAAATCCTGT)	0
AGGACTACATGGACCGGTTTTCCCGGTAATCCGTATTTGAA (site AGGACTACTCT)	0.127
CGTCCAACATGGACCGGTTTTCCCGGTAATCCGTATTTGTA (site AGTCCAACTTA)	0.00336
